For 27 molecules, T/C results are on record in PubChem BioAssay AID330 (DTP/NCI, 2004).

Where “and” joins values, the source holds several entries; their conditions need not be identical. Equal values may be shown once. Inconclusive results and toxic doses are left out.

This experiment has as its system P388 leukemia ip, CD2F1 mice, survival T/C. Briefly: NCI In Vivo Anticancer Drug Screen. Data for tumor model P388 Leukemia (intraperitoneal) in CD2F1 (CDF1) mice. Conditions: endpoint: median survival time, higher = longer survival. The method, boiled down: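 Mice carrying the transplanted tumor received test compound or vehicle. Survival was recorded in each group, and the value is the treated-group measurement divided by that of the vehicle-treated control group.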

Setting [1] is: dose: 12.5 mg/kg/injection, schedule: Q04DX003 (ip), vehicle: saline with Tween-80.
Where [2] appears, read: dose: 25.0 mg/kg/injection, schedule: Q04DX003 (ip), vehicle: saline with Tween-80.
Setting [3] is: dose: 50.0 mg/kg/injection, schedule: Q04DX003 (ip), vehicle: saline with Tween-80.
Setting [4] is: dose: 50.0 mg/kg/injection, schedule: Q01DX009 (ip), vehicle: saline with Tween-80.
Setting [5] is: dose: 100.0 mg/kg/injection, schedule: Q01DX009 (ip), vehicle: saline with Tween-80.
Setting [6] is: dose: 200.0 mg/kg/injection, schedule: Q01DX009 (ip), vehicle: saline with Tween-80.
The mark [7] stands for this setting: dose: 3.12 mg/kg/injection, schedule: Q01DX009 (ip), vehicle: saline with Tween-80.
[8] abbreviates: dose: 6.25 mg/kg/injection, schedule: Q01DX009 (ip), vehicle: saline with Tween-80.
[9] abbreviates: dose: 12.5 mg/kg/injection, schedule: Q01DX009 (ip), vehicle: saline with Tween-80.
Where [10] appears, read: dose: 25.0 mg/kg/injection, schedule: Q01DX009 (ip), vehicle: Klucel (hydroxypropylcellulose) (HPC).
[11] abbreviates: dose: 100.0 mg/kg/injection, schedule: Q01DX009 (ip), vehicle: Klucel (hydroxypropylcellulose) (HPC).
Where [12] appears, read: dose: 1.56 mg/kg/injection, schedule: Q01DX005 (ip), vehicle: saline with Tween-80.
[13] abbreviates: dose: 50.0 mg/kg/injection, schedule: Q01DX005 (ip), vehicle: saline with Tween-80.
[14] abbreviates: dose: 100.0 mg/kg/injection, schedule: Q01DX005 (ip), vehicle: saline with Tween-80.
Where [15] appears, read: dose: 60.0 mg/kg/injection, schedule: Q01DX005 (ip), vehicle: saline with Tween-80.
[16] abbreviates: dose: 120.0 mg/kg/injection, schedule: Q01DX005 (ip), vehicle: saline with Tween-80.
Setting [17] is: dose: 200.0 mg/kg/injection, schedule: Q01DX005 (ip), vehicle: saline with Tween-80.
[18] abbreviates: dose: 25.0 mg/kg/injection, schedule: Q01DX009 (ip), vehicle: saline with Tween-80.
Setting [19] is: dose: 240.0 mg/kg/injection, schedule: Q01DX005 (ip), vehicle: saline with Tween-80.

As to `Clc1cccc2nn3ccnc3n12`, the T/C is, setting by setting: (dose: 50.0 mg/kg/injection, schedule: Q01DX001 (ip), vehicle: Klucel (hydroxypropylcellulose) (HPC)) 105 % of control; (dose: 100.0 mg/kg/injection, schedule: Q01DX001 (ip), vehicle: Klucel (hydroxypropylcellulose) (HPC)) 99 % of control; (dose: 200.0 mg/kg/injection, schedule: Q01DX001 (ip), vehicle: Klucel (hydroxypropylcellulose) (HPC)) 102 % of control.
Consider `CC(C)C(C=O)C(O)(C(F)(F)F)C(F)(F)Cl` (stereo not drawn), for which the T/C reads like this: under setting [1], 100 % of control; under setting [2], 90 % of control; under setting [3], 95 % of control.
`C[n+]1ccccc1C1(O)CCCC1`: the T/C was 94 % of control under setting [4], 100 % of control under setting [5] and 100 % of control under setting [6].
With `CC1=C(C)C(=O)c2nn(C)nc2C1=O`, the T/C runs as follows: (dose: 6.25 mg/kg/injection, schedule: Q01DX001 (ip), vehicle: saline) 100 % of control; (dose: 12.5 mg/kg/injection, schedule: Q01DX001 (ip), vehicle: saline) 98 % of control; (dose: 25.0 mg/kg/injection, schedule: Q01DX001 (ip), vehicle: saline) 99 % of control.
Turning to `O=C1C(CC=C(Cl)Cl)=C(OC2OC(CO)C(O)C(O)C2O)C(=O)c2ccccc21` (stereo not drawn), the T/C is 103 % of control under setting [7], 109 % of control under setting [8] and 111 % of control under setting [9].
`CN=C(NC(C)C)c1ccc(NC(=O)c2ccc(C(=O)Nc3ccc(C(=NC)NC(C)C)cc3)cc2)cc1`: the T/C reads like this: (dose: 32.0 mg/kg/injection, schedule: Q01DX009 (ip), vehicle: saline) 122 % of control; (dose: 64.0 mg/kg/injection, schedule: Q01DX009 (ip), vehicle: saline) 109 % of control; (dose: 96.0 mg/kg/injection, schedule: Q04DX003 (ip), vehicle: saline with Tween-80) 154 % of control.
As to `O=C(CC(c1ccccc1)C(Sc1ccccc1)(Sc1ccccc1)Sc1ccccc1)c1ccccc1` (stereo not drawn), the T/C was 100 % of control under setting [10]; 100 % of control (dose: 50.0 mg/kg/injection, schedule: Q01DX009 (ip), vehicle: Klucel (hydroxypropylcellulose) (HPC)); 100 % of control and 105 % of control under setting [11].
Turning to `O=C1C2=C(Nc3cc([N+](=O)[O-])ccc3N2)OC1c1cccc([N+](=O)[O-])c1` (stereo not drawn), the T/C (dose: 60.0 mg/kg/injection, schedule: Q01DX005 (ip), vehicle: Klucel (hydroxypropylcellulose) (HPC)) is 97 % of control; the T/C (dose: 120.0 mg/kg/injection, schedule: Q01DX005 (ip), vehicle: Klucel (hydroxypropylcellulose) (HPC)) was 96 % of control; the T/C (dose: 240.0 mg/kg/injection, schedule: Q01DX005 (ip), vehicle: Klucel (hydroxypropylcellulose) (HPC)) was 102 % of control.
Take `S=C(N/N=C1/CCCC/C1=N/NC(=S)N1CCOCC1)N1CCOCC1`: the T/C is, setting by setting: under setting [12], 101 % of control and 103 % of control; (dose: 3.12 mg/kg/injection, schedule: Q01DX005 (ip), vehicle: saline with Tween-80) 99 % of control and 103 % of control and 104 % of control.
On to `Cn1c(N)c(C(=O)/C=C/c2ccccc2)c(=O)n(C)c1=O`, for which the T/C was 99 % of control and 124 % of control (dose: 12.5 mg/kg/injection, schedule: Q01DX009 (ip), vehicle: Klucel (hydroxypropylcellulose) (HPC)); 120 % of control and 93 % of control under setting [10]; 93 % of control and 113 % of control and 92 % of control under setting [11]; 116 % of control (dose: 200.0 mg/kg/injection, schedule: Q01DX009 (ip), vehicle: Klucel (hydroxypropylcellulose) (HPC)).
In the case of `FC(F)(F)c1ccc2nc(Cl)[nH]c2c1`, the T/C was 98 % of control under setting [13] and 98 % of control under setting [14].
As for `CN1c2ccccc2SC12C(=O)N(c1ccccc1)C(=O)N2c1ccccc1` (stereo not drawn), the T/C under setting [4] is 103 % of control, the T/C under setting [5] is 100 % of control and the T/C under setting [6] is 103 % of control.
Regarding `CC(=O)OC(CC(=O)CC(O)(C(F)(F)F)C(F)(F)F)(C(F)(F)F)C(F)(F)F`, the T/C is, setting by setting: (dose: 6.25 mg/kg/injection, schedule: Q04DX003 (ip), vehicle: saline) 104 % of control; (dose: 12.5 mg/kg/injection, schedule: Q04DX003 (ip), vehicle: saline) 90 % of control.
In the case of `O=C1C=C(NCc2ccccc2)CCC1`, the T/C is 109 % of control (dose: 1.56 mg/kg/injection, schedule: Q01DX009 (ip), vehicle: saline); 113 % of control (dose: 3.12 mg/kg/injection, schedule: Q01DX009 (ip), vehicle: saline); 100 % of control (dose: 6.25 mg/kg/injection, schedule: Q01DX009 (ip), vehicle: saline).
On to `CCOC(=O)c1cc(/C=C/c2ccc(Cl)cc2Cl)on1`, for which the T/C is 100 % of control under setting [15] and 90 % of control under setting [16].
As to `Cc1cc(=O)c2cc3ccc4c5[nH]c(C)cc(=O)c5cc5ccc(c2[nH]1)c3c54`, the T/C is, setting by setting: under setting [13], 101 % of control; under setting [14], 106 % of control; under setting [17], 111 % of control.
Turning to `O=[N+]([O-])CC1CCCCC1O` (stereo not drawn), the T/C is 100 % of control under setting [8], 100 % of control under setting [9] and 90 % of control under setting [18].
In the case of `Cc1cc(=O)n2[nH]c(-c3ccc(C(C)(C)C)cc3)cc2n1`, the T/C is 111 % of control under setting [15], 109 % of control under setting [16] and 93 % of control under setting [19].
`Cn1c(=O)c2[nH]c(CN(CCCl)CCCl)nc2n(C)c1=O`: the T/C is 109 % of control (dose: 0.66 mg/kg/injection, schedule: Q01DX009 (ip), vehicle: saline with Tween-80); 115 % of control (dose: 1.0 mg/kg/injection, schedule: Q01DX009 (ip), vehicle: saline with Tween-80); 95 % of control (dose: 6.6 mg/kg/injection, schedule: Q04DX003 (ip), vehicle: saline with Tween-80); 113 % of control (dose: 10.0 mg/kg/injection, schedule: Q04DX003 (ip), vehicle: saline with Tween-80); 263 % of control under setting [9]; 150 % of control under setting [1]. The T/C is, setting by setting: under setting [18], 219 % of control; under setting [2], 163 % of control; under setting [3], 218 % of control.
In the case of `O=C(CCCCCCCC(=O)Nc1ccc2[nH]c3ccccc3c(=O)c2c1)Nc1ccc2[nH]c3ccccc3c(=O)c2c1`, the T/C is, setting by setting: under setting [13], 107 % of control; under setting [14], 107 % of control; under setting [17], 106 % of control.
For the molecule `CCCCCCCCCCCc1c(O)c(O)c(-c2ccccn2)c2nonc12`, the T/C runs as follows: under setting [13], 106 % of control; under setting [14], 103 % of control; under setting [17], 98 % of control.
With `C(=NCCCN=CC1CCCC[N-]1)C1CCCC[N-]1.[Cu+2].[O-][Cl+3]([O-])([O-])O` (stereo not drawn), the T/C is 103 % of control under setting [7]; 101 % of control under setting [8]; 103 % of control and 112 % of control under setting [9]; 103 % of control under setting [18].
Take `C[n+]1ccc2c([N+](=O)[O-])cccc2c1`: the T/C runs as follows: (dose: 6.25 mg/kg/injection, schedule: Q01DX005 (ip), vehicle: saline) 103 % of control; (dose: 12.5 mg/kg/injection, schedule: Q01DX005 (ip), vehicle: saline) 112 % of control.
With `Cc1cccc(Cl)c1NC(=O)N(C)c1ccccc1`, the T/C under setting [15] was 99 % of control, the T/C under setting [16] is 100 % of control and the T/C under setting [19] is 97 % of control.
Turning to `COC(=O)c1ccc(SCC(=O)c2ccc([N+](=O)[O-])o2)cc1`, the T/C was 88 % of control (dose: 50.0 mg/kg/injection, schedule: Q01DX009 (ip), vehicle: suspension in saline) and 97 % of control (dose: 100.0 mg/kg/injection, schedule: Q01DX009 (ip), vehicle: suspension in saline).
With `CS/C(=C/c1ccc2ccccc2[n+]1C)N1CCSCC1`, the T/C is 108 % of control under setting [12]; 113 % of control (dose: 3.13 mg/kg/injection, schedule: Q01DX005 (ip), vehicle: saline with Tween-80); 113 % of control (dose: 6.25 mg/kg/injection, schedule: Q01DX005 (ip), vehicle: saline with Tween-80).
Turning to `N#CC1Sc2ccccc2N1C(=O)OCc1ccccc1` (stereo not drawn), the T/C under setting [15] is 93 % of control, the T/C under setting [16] was 92 % of control and the T/C under setting [19] is 91 % of control.
